Test results published in patent US7883723B2, “Water soluble chitosan nanoparticle for delivering an anticancer agent and preparing method thereof” (priority 2004, dated 2011).
Like-named read-outs stand apart in the source and are kept apart here.

System: CT-26 mourine tumor cells
Details: for survival rate of mice: FIG. 8
Method: Female BALB/c mice (average weight: 20 g) were injected subcutaneously in the flank with CT-26 mourine tumor cells (5×10^4 cells/mouse). When the tumor was growing to the size of 3 mm×3 mm, the mice were divided into two groups; an experimental group and a control group. Each group was filled with 8 mice having a tumor and they were marked in their ears for the observation. 15 days after the transplantation, the administration (an intravenous injection) of drug and vehicle began. Each test drug was administered both with low dose of 2 mg/kg and with high dose of 10 mg/kg every three days four times total for 12 days. Only vehicle (cremophor:dehydrated ethyl alcohol, 1:1 v/v) was administered to a control group. Death rate of mice was checked every day and the growth of a tumor was measured using caliper measurement device at two or three day interval. Tumor volume was calculated by the following Formula 2. Tumor volume: mm^3=(Length×Width^2)/2 <Formula 2>
A drug or a vehicle was injected into tail vein of a mouse two weeks after tumor transplantation.
Tumor volume was measured from the 15th day after tumor cell transplantation.

CC(=O)O[C@H]1C(=O)[C@@]2(C)[C@H]([C@H](OC(=O)c3ccccc3)[C@]3(O)C[C@H](OC(=O)[C@H](O)[C@@H](NC(=O)c4ccccc4)c4ccccc4)C(C)=C1C3(C)C)[C@]1(OC(C)=O)CO[C@@H]1C[C@@H]2O [paclitaxel]
time for which tumor growth was inhibited before regrowth (10 mg/kg i.v., CT-26 tumor mice, FIG. 9): 30 days
survival rate of mice (high dose 10 mg/kg i.v. every three days four times, CT-26 tumor mice): not much different from each other
tumor volume / anticancer activity (high dose 10 mg/kg i.v., CT-26 tumor mice, FIG. 9): remarkably decreased
survival rate of mice (low dose 2 mg/kg i.v. every three days four times, CT-26 tumor mice): not much different from each other
tumor volume / tumor growth (low dose 2 mg/kg i.v., CT-26 tumor mice, FIG. 9): not much different between them
weight changes of mice (mouse, in vivo): not significantly different
